# Experimental data: patent US7026314B2, “Therapeutic chromone compounds” (AstraZeneca AB, priority 2001, dated 2006)
# System: not given
# Assay: not given
# Conditions: not given
row,melting point,SMILES
1,216 °C (dec.),"CN1CCN(c2cccc3c2OC(C(=O)Nc2ccc(N4CCOCC4)cc2)CC3=O)CC1 (single isomer, unassigned) [Example 79, 8-(4-Methyl-piperazin-1-yl)-4-oxo-chroman-2-carboxylic acid (4-morpholin-4-yl-phenyl)-amide(fasterrunning isomer)]"
2,215 °C (dec.),"CN1CCN(c2cccc3c2OC(C(=O)Nc2ccc(N4CCOCC4)cc2)CC3=O)CC1 (single isomer, unassigned) [Example 80, 8-(4-Methyl-piperazin-1-yl)-4-oxo-chroman-2-carboxylic acid (4-morpholin-4-yl-phenyl)-amide(slowerrunning isomer).]"
3,217 to 218 °C (dec.),"CN1CCN(c2cccc3c(=O)cc(C(=O)Nc4ccc(N5CCOCC5)cc4)oc23)CC1 [Example 1, 8-(4-methyl-1-piperazinyl)-N-[4-(4-morpholinyl)phenyl]-4-oxo-4H-chromene-2-carboxamide]"
4,158.1 to 158.8 °C,"CN1CCN(c2cccc3c(=O)cc(-c4nc5ccc(N6CCOCC6)cc5o4)oc23)CC1 [Example 21, 8-(4-Methyl-piperazin-1-yl)-2-(6-morpholin-4-yl-benzooxazol-2-yl)-chromen-4-one]"
5,248.4 to 249.6 °C,"CN1CCN(c2cccc3c(=O)cc(C(=O)Nc4ccc(N5CCOCC5)cc4O)oc23)CC1 [Example 22, 8-(4-Methyl-piperazin-1-yl)-4-oxo-4H-chromene-2-carboxylic acid (2-hydroxy-4-morpholin-4-yl-phenyl)-amide]"
6,234 to 236 °C,"COc1cc(N2CCN(C)CC2)c2oc(C(=O)Nc3ccc(N4CCOCC4)cc3)cc(=O)c2c1 [Example 31, 6-Methoxy-8-(4-methyl-piperazin-1-yl)-4-oxo-4H-chromene-2-carboxylic acid (4-morpholin-4-yl-phenyl)-amide]"
7,233 to 234 °C,"CCS(=O)(=O)N1CCN(c2ccc(NC(=O)c3cc(=O)c4cc(F)cc(N5CCN(C)CC5)c4o3)cc2)CC1 [Example 71, 6-Fluoro-8-(4-methyl-piperazin-1-yl)-4-oxo-4H-chromene-2-carboxylic acid [4-(4-ethanesulfonyl-piperazin-1-yl)-phenyl]-amide]"
8,195 to 199 °C,"CN1CCN(c2cc(F)cc3c(=O)cc(C(=O)Nc4ccc(N5CCN(C(=O)CCO)CC5)cc4)oc23)CC1 [Example 73, 6-Fluoro-8-(4-methyl-piperazin-1-yl)-4-oxo-4H-chromene-2-carboxylic acid {4-[4-(3-hydroxy-propanoyl)-piperazin-1-yl]-phenyl}-amide]"

# The next lines start with the compound.
row,SMILES,melting point
1,"CN1CCN(c2cccc3c2OC(C(=O)Nc2ccc(N4CCOCC4)cc2)CC3)CC1 (racemic) [Example 75, 8-(4-Methyl-piperazin-1-yl)-chroman-2-carboxylic acid(4-morpholin-4-yl-phenyl)-amide]",215 to 216 °C
2,"CN1CCN(c2cccc3c2OC(C(=O)Nc2ccc(N4CCOCC4)cc2)CC3=O)CC1 (racemic) [Example 78, racemic-8-(4-methyl-piperazin-1-yl)-4-oxo-chroman-2-carboxylicacid (4-morpholin-4-yl-phenyl)-amide]",215 to 216 °C
3,"CN1CCN(c2cccc3c2OC(C(=O)Nc2ccc(N4CCOCC4)cc2)CC3)CC1 (single isomer, unassigned; (+)) [Example 76, (+)-8-(4-Methyl-piperazin-1-yl)-chroman-2-carboxylic acid (4-morpholin-4-yl-phenyl)-amide]",206 to 207 °C
4,"CN1CCN(c2cccc3c2OC(C(=O)Nc2ccc(N4CCOCC4)cc2)CC3)CC1 (single isomer, unassigned; (-)) [Example 77, (−)-8-(4-Methyl-piperazin-1-yl)-chroman-2-carboxylic acid (4-morpholin-4-yl-phenyl)-amide]",205.5 to 207 °C
5,"COc1cc(N2CCN(C)CC2)c2oc(C(=O)Nc3ccc(N4CCN(C(=O)CCO)CC4)cc3)cc(=O)c2c1 [Example 68, 6-Methoxy-8-(4-methyl-piperazin-1-yl)-4-oxo-4H-chromene-2-carboxylic acid {4-[4-(3-hydroxy-propanoyl)-piperazin-1-yl]-phenyl}-amide]",195 to 197 °C

# Biological target: 5-HT1B and 5HT1D receptors
# Assay: not given
# Conditions: saturation studies, guinea pig cortex membranes; read-out: Kd value of [3H]GR125743; cited from earlier work
row,SMILES,Kd
1,COc1ccc(NC(=O)c2ccc(-c3ccncc3)c(C)c2)cc1N1CCN(C)CC1 [[^3H]-GR125743],46 ± 4 pM

# Biological target: T1, 5-HT1B receptors (Homo sapiens, UniProt P28222)
# T1 construct: expressed in transfected cells; host or cells: CHO (stably transfected), frozen membrane preparations
# T1 sequence (P28222 whole entry): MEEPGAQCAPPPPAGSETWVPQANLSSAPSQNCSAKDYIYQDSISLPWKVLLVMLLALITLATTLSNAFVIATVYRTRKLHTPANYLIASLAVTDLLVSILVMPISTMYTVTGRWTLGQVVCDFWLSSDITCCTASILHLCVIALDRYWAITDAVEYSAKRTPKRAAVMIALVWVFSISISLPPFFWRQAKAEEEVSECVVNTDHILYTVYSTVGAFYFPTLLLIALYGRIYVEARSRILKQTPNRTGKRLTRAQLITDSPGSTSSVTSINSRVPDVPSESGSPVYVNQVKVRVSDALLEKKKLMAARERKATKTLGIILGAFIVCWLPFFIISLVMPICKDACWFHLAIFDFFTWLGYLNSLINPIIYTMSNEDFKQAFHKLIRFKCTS
# Assay: 5-HT1b binding assay, competition with [3H]-GR125743 on CHO cell membranes
# Conditions: CHO membranes expressing 5-HT1B and 5-HT1D receptors
# Excerpt: Other assays that may be used to measure for example affinity of compounds of the present invention for 5HT1B and 5HT1D receptors are described in J. Med. Chem 41:1218–1235, 1228 (1998) and J. Med. Chem 42:4981–5001, (1999) and incorporated by reference herein. These assays may be used with some modifications: Frozen membrane preparations of a stably transfected chinese hamster ovary (CHO) cell line expressing 5-HT1B receptors and 5-HT1D receptors are thawed rapidly, briefly vortexed, and diluted in assay buffer (AB) containing 50 mM Tris-HCl, 4 mM MgCl2, 4mM CaCl2, 1 mM EDTA, and adjusted to pH 7.4 with NaOH. Final protein concentrations are −0.185 mg/ml for 5-HT1B, and 0.4 mg/ml for 5-HT1D membranes. Test compounds are evaluated in competition assays using [^3H]-GR125743 (Amersham). The ligand concentration in both assays was 0.27 nM. […] The 5-HT1B and 5-HT1D assays are performed simultaneously on one 96-well assay plate, one drug/compound per plate. Ten serial dilutions (1 uM to 4 pM, final concentration) of compound are prepared in DMSO from 10 mM stock solutions. Incubation mixtures are prepared in quadruplicate in 96-deep well assay plates (Matrix 1 ml). […] The plates are then counted on a Packard TopCount to determine CPM's per well. Ki values are determined for each test compound utilizing the graphic and analytical software package, GraphPad Prism. […]
row,Kd,SMILES
1,150 to 250 pM,COc1ccc(NC(=O)c2ccc(-c3ccncc3)c(C)c2)cc1N1CCN(C)CC1 [[^3H]-GR125743]

# System: guinea pigs
# Assay: learned helplessness test in guinea pigs
# Type: in vivo
# Conditions: guinea pig
# Excerpt: The utility of the compounds for example to treat depression may be shown via a learned helplessness test in guinea pigs, which is used extensively as correlative to antidepressant activity in humans. The learned helplessness test may be carried out as follows: Seventy male Hartley guinea pigs, each weighing about 350–425 gm are fed ad lib, and are housed under a 12-hour light/dark cycle. The procedure consists of two phases: The induction phase and the avoidance training phase. In the induction phase, subjects are placed into standard shuttle cages (20 L×16 W×21 centimeters H) which are fitted with a grid floor. Electrical stimulation (1.25 mA, 10 sec duration) is delivered to the floor of the cage every 90-sec during 1 hour daily sessions. Subjects have no opportunity to escape or to avoid shocks. Induction is conducted for 2 consecutive days.
# In avoidance training, testing is also conducted in the shuttle cages, except that the subjects are not returned to the same chamber in which induction had occurred. Additionally, all cages are fitted with a partition with an arch in the center of the cage, through which animals can pass between the left and right halves of the cage. The procedure employed is a standard shuttle avoidance procedure in which a compound, conditioned stimulus (a 10-sec presentation of a tone and turning on of a lamp on the side of the cage that the guinea pig was occupying) serves to indicate presentation of electrical current to the floor of the cage. Shock is presented for a 5 sec period, 5 sec after initiation of the conditioned stimulus. Entry into the opposite side of the shuttle cage via the arched partition prior to shock onset results in the end of the trial (avoidance response). If shock is delivered, entry into the opposite side of the cage results in termination of the shock and CS (escape). Reversal of learned helplessness in the induction subjects correlates to antidepressant activity of the test compound.
# Avoidance training, 45-min in duration, is conducted on 2 consecutive days, beginning 48 hr after the final induction session. Seventy subjects are assigned to 1 of 6 groups of 11–12 animals. The groups are as follows:
# Groups 2–6 are given induction and avoidance training sessions. Injections are administered immediately following induction sessions and 1 hour prior to avoidance training sessions. A second injection is administered 7–8 hours following the first injection, for a total of 9 injections administered over 5 days. No injections are administered following the final avoidance training session.
# Compounds of the present invention may be administered in a volume of 1 mL/kg bwt. Imipramine is dissolved in DI water. The compounds are dissolved in DI water, to which was added a few drops of lactic acid (pH 5.5). […]
row,SMILES,activity in the learned helplessness assay for antidepressant/antianxiety activity
1,"COc1cc(N2CCN(C)CC2)c2oc(C(=O)Nc3ccc(N4CCOCC4)cc3)cc(=O)c2c1 [Example 31, 6-Methoxy-8-(4-methyl-piperazin-1-yl)-4-oxo-4H-chromene-2-carboxylic acid (4-morpholin-4-yl-phenyl)-amide]",demonstrate activity
2,"CCC(=O)N1CCN(c2ccc(NC(=O)c3cc(=O)c4cc(OC)cc(N5CCN(C)CC5)c4o3)cc2)CC1 [Example 44, 6-Methoxy-8-(4-methyl-piperazin-1-yl)-4-oxo-4H-chromene-2-carboxylic acid [4-(4-propionyl-piperazin-1-yl)-phenyl]-amide]",demonstrate activity
3,"CCS(=O)(=O)N1CCN(c2ccc(NC(=O)c3cc(=O)c4cc(F)cc(N5CCN(C)CC5)c4o3)cc2)CC1 [Example 71, 6-Fluoro-8-(4-methyl-piperazin-1-yl)-4-oxo-4H-chromene-2-carboxylic acid [4-(4-ethanesulfonyl-piperazin-1-yl)-phenyl]-amide]",demonstrate activity
4,"CCC(=O)N1CCN(c2ccc(NC(=O)c3cc(=O)c4cc(F)cc(N5CCN(C)CC5)c4o3)cc2)CC1 [Example 72, 6-Fluoro-8-(4-methyl-piperazin-1-yl)-4-oxo-4H-chromene-2-carboxylic acid [4-(4-propionyl-piperazin-1-yl)-phenyl]-amide]",demonstrate activity
